Reference: PubChem BioAssay (NCI)
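Test compounds were applied to cells in 96-well plates for 48 hours at 5 doses. TGI denotes the concentration required for complete inhibition of growth.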

What was measured:
Test in all cases: inhibition of tumour cell growth, NCI panel, 48 h
SK-MEL-28 melanoma = test system: SK-MEL-28 melanoma
NCI-H226 lung = test system: NCI-H226 lung
COLO 205 colon = test system: COLO 205 colon
T-47D breast = test system: T-47D breast
MDA-MB-435 = test system: MDA-MB-435
SF-268 CNS = test system: SF-268 CNS
NCI/ADR-RES ovarian = test system: NCI/ADR-RES ovarian
MDA-MB-231 breast = test system: MDA-MB-231 breast
HOP-92 NSCLC = test system: HOP-92 NSCLC
LOX IMVI melanoma = test system: LOX IMVI melanoma
SF-539 CNS = test system: SF-539 CNS
SN12C renal = test system: SN12C renal
SF-295 CNS = test system: SF-295 CNS
MOLT-4 leukemia = test system: MOLT-4 leukemia
SK-OV-3 ovarian = test system: SK-OV-3 ovarian
SK-MEL-5 melanoma = test system: SK-MEL-5 melanoma
K-562 leukemia = test system: K-562 leukemia
MCF7 breast = test system: MCF7 breast
SNB-19 CNS = test system: SNB-19 CNS
ACHN renal = test system: ACHN renal
EKVX NSCLC = test system: EKVX NSCLC
UACC-62 melanoma = test system: UACC-62 melanoma
SK-MEL-2 melanoma = test system: SK-MEL-2 melanoma
A549 NSCLC = test system: A549 NSCLC
MDA-N = test system: MDA-N
OVCAR-3 ovarian = test system: OVCAR-3 ovarian
CAKI-1 renal = test system: CAKI-1 renal
BT-549 breast = test system: BT-549 breast
UACC-257 melanoma = test system: UACC-257 melanoma
OVCAR-8 ovarian = test system: OVCAR-8 ovarian
DU-145 prostate = test system: DU-145 prostate
RPMI-8226 leukemia = test system: RPMI-8226 leukemia
NCI-H522 lung = test system: NCI-H522 lung
KM12 colon = test system: KM12 colon
SR leukemia = test system: SR leukemia
HL-60(TB) leukemia = test system: HL-60(TB) leukemia
IGROV1 ovarian = test system: IGROV1 ovarian
U251 CNS = test system: U251 CNS
HCT-15 colon = test system: HCT-15 colon
HT29 colon = test system: HT29 colon
HCT-116 colon = test system: HCT-116 colon
TK-10 renal = test system: TK-10 renal
HS 578T breast = test system: HS 578T breast
786-0 renal = test system: 786-0 renal
RXF 393 renal = test system: RXF 393 renal
M14 melanoma = test system: M14 melanoma
NCI-H23 lung = test system: NCI-H23 lung
SW-620 colon = test system: SW-620 colon
MALME-3M melanoma = test system: MALME-3M melanoma
OVCAR-4 ovarian = test system: OVCAR-4 ovarian
OVCAR-5 ovarian = test system: OVCAR-5 ovarian
A498 renal = test system: A498 renal
HOP-62 NSCLC = test system: HOP-62 NSCLC
PC-3 prostate = test system: PC-3 prostate
NCI-H460 lung = test system: NCI-H460 lung
HCC-2998 colon = test system: HCC-2998 colon
CCRF-CEM leukemia = test system: CCRF-CEM leukemia
UO-31 renal = test system: UO-31 renal
SNB-75 CNS = test system: SNB-75 CNS

## O=C1CS(=O)C23c4cc5ccccc5n4CCC2CCCN13 (centres undefined)
SK-MEL-28 melanoma
  TGI: > 100 µM
NCI-H226 lung
  TGI: > 100 µM
COLO 205 colon
  TGI: > 100 µM
T-47D breast
  TGI: > 100 µM
MDA-MB-435
  TGI: > 100 µM
SF-268 CNS
  TGI: > 100 µM
NCI/ADR-RES ovarian
  TGI: > 100 µM
MDA-MB-231 breast
  TGI: > 100 µM
HOP-92 NSCLC
  TGI: > 100 µM
LOX IMVI melanoma
  TGI: > 100 µM
SF-539 CNS
  TGI: > 100 µM
SN12C renal
  TGI: > 100 µM
SF-295 CNS
  TGI: > 100 µM
MOLT-4 leukemia
  TGI: > 100 µM
SK-OV-3 ovarian
  TGI: > 100 µM
SK-MEL-5 melanoma
  TGI: > 100 µM
K-562 leukemia
  TGI: > 100 µM
MCF7 breast
  TGI: > 100 µM
SNB-19 CNS
  TGI: > 100 µM
ACHN renal
  TGI: > 100 µM
EKVX NSCLC
  TGI: > 100 µM
UACC-62 melanoma
  TGI: > 100 µM
SK-MEL-2 melanoma
  TGI: > 100 µM
A549 NSCLC
  TGI: > 100 µM
MDA-N
  TGI: > 100 µM
OVCAR-3 ovarian
  TGI: > 100 µM
CAKI-1 renal
  TGI: > 100 µM
BT-549 breast
  TGI: > 100 µM
UACC-257 melanoma
  TGI: > 100 µM
OVCAR-8 ovarian
  TGI: > 100 µM
DU-145 prostate
  TGI: > 100 µM
RPMI-8226 leukemia
  TGI: > 100 µM
NCI-H522 lung
  TGI: > 100 µM
KM12 colon
  TGI: > 100 µM
SR leukemia
  TGI: > 100 µM
HL-60(TB) leukemia
  TGI: > 100 µM
IGROV1 ovarian
  TGI: > 100 µM
U251 CNS
  TGI: > 100 µM
HCT-15 colon
  TGI: > 100 µM
HT29 colon
  TGI: > 100 µM
HCT-116 colon
  TGI: > 100 µM
TK-10 renal
  TGI: > 100 µM
HS 578T breast
  TGI: > 100 µM
786-0 renal
  TGI: > 100 µM
RXF 393 renal
  TGI: > 100 µM
M14 melanoma
  TGI: > 100 µM
NCI-H23 lung
  TGI: > 100 µM
SW-620 colon
  TGI: > 100 µM
MALME-3M melanoma
  TGI: > 100 µM
OVCAR-4 ovarian
  TGI: > 100 µM
OVCAR-5 ovarian
  TGI: > 100 µM
A498 renal
  TGI: > 100 µM
HOP-62 NSCLC
  TGI: > 100 µM
PC-3 prostate
  TGI: > 100 µM

## O=C(c1ccco1)C1CC(c2c(O)ccc3ccccc23)=NN1 (centres undefined)
SK-MEL-28 melanoma
  TGI: 47.8 µM
NCI-H226 lung
  TGI: 40.2 µM
COLO 205 colon
  TGI: 21.7 µM
T-47D breast
  TGI: 50.5 µM
NCI-H460 lung
  TGI: 19.9 µM
MDA-MB-435
  TGI: 22.4 µM
SF-268 CNS
  TGI: 30.2 µM
NCI/ADR-RES ovarian
  TGI: 51.1 µM
MDA-MB-231 breast
  TGI: 37.3 µM
HOP-92 NSCLC
  TGI: 37.4 µM
SF-539 CNS
  TGI: 26.7 µM
SN12C renal
  TGI: 46 µM
SF-295 CNS
  TGI: 23.3 µM
MOLT-4 leukemia
  TGI: 42.7 µM
SK-OV-3 ovarian
  TGI: 56.6 µM
SK-MEL-5 melanoma
  TGI: 29.7 µM
HCC-2998 colon
  TGI: 25.7 µM
K-562 leukemia
  TGI: > 100 µM
MCF7 breast
  TGI: 22 µM
SNB-19 CNS
  TGI: 47.8 µM
ACHN renal
  TGI: 25 µM
EKVX NSCLC
  TGI: 32.4 µM
UACC-62 melanoma
  TGI: 26 µM
SK-MEL-2 melanoma
  TGI: 39.2 µM
CCRF-CEM leukemia
  TGI: 93 µM
UO-31 renal
  TGI: 23.1 µM
MDA-N
  TGI: 36.4 µM
OVCAR-3 ovarian
  TGI: 25.8 µM
CAKI-1 renal
  TGI: 38.8 µM
BT-549 breast
  TGI: 31 µM
UACC-257 melanoma
  TGI: 57.9 µM
SNB-75 CNS
  TGI: 33.6 µM
OVCAR-8 ovarian
  TGI: 51.5 µM
DU-145 prostate
  TGI: 30.8 µM
RPMI-8226 leukemia
  TGI: 86.6 µM
NCI-H522 lung
  TGI: 22.5 µM
KM12 colon
  TGI: 24.3 µM
SR leukemia
  TGI: 42.8 µM
HL-60(TB) leukemia
  TGI: 53.8 µM
IGROV1 ovarian
  TGI: 42 µM
U251 CNS
  TGI: 34.1 µM
HCT-15 colon
  TGI: > 100 µM
HT29 colon
  TGI: 24 µM
TK-10 renal
  TGI: 32.5 µM
HS 578T breast
  TGI: 46.3 µM
RXF 393 renal
  TGI: 50 µM
M14 melanoma
  TGI: 26 µM
NCI-H23 lung
  TGI: 37.7 µM
SW-620 colon
  TGI: 31 µM
MALME-3M melanoma
  TGI: 37.9 µM
OVCAR-4 ovarian
  TGI: > 100 µM
OVCAR-5 ovarian
  TGI: 36.3 µM
A498 renal
  TGI: 40.4 µM
HOP-62 NSCLC
  TGI: 27.3 µM
PC-3 prostate
  TGI: 21.1 µM
